One assay relates to NRF2. The experiment in a line: HO-1 induction in Nrf2−/− versus Nrf2+/+ MEFs. It counts as cell-based, mouse. Here is the method:
FIG. 5. PHAR-mediated NRF2 activation is independent of KEAP1 and is responsible for the increase in the expression of its targets. (A-D) Serum-deprived MEFs originating from wild-type (WT) or KEAP1 null (Keap1−/−) mice were treated with 10 μM of PHAR for the indicated times. 0.1% DMSO was used as a vehicle. A), representative immunoblots of NRF2, HO1, KEAP1, LAMINB, and GAPDH as loading controls. B) and C), densitometric analysis of NRF2 and HO1 protein levels of the representative immunoblots of (A), expressed as a ratio of NRF2/LAMINB or HO1/GAPDH. The data is depicted as means±SEM (n=3). Statistical analysis was performed with two-way ANOVA followed by the Bonferroni test to check inter-group differences. D), the mRNA levels of Hmox-1, Nqo1, Aox1, Gc1c, and Gc1m were determined after 8 h of 10 μM PHAR by means of qRT-PCR and normalized by means of average Gapdh, Tbp, and β-actin. The data is depicted as mean±SEM (n=3). Statistical analysis was performed with two-way ANOVA followed by the Bonferroni test to check inter-group differences. *p<0.05; **p<0.01; ***p<0.001 vs. 0 of MEF-WT. (E-H), Serum-deprived MEFs from wild-type (WT) or NRF2 null (Nrf2−/−) mice were subjected to 10 μM of PHAR for the indicated times. 0.1% DMSO was used as a vehicle. E), representative immunoblots of NRF2, HO1, KEAP1, LAMINB, and GAPDH as loading controls. F) and G), densitometric analysis of NRF2 and HO1 protein levels of the representative immunoblots of (E), expressed as a ratio of NRF2/LAMINB or HO1/GAPDH. […] H), the mRNA levels of Hmox-1, Nqo1, Aox1, Gclc, and Gclm were determined after 8 h of 10 μM PHAR by means of qRT-PCR and normalized by means of average Gapdh, Tbp, and β-actin. […]
From a viewpoint of biopharmaceutical usefulness, it is important to determine if PHAR acts on KEAP1/NRF2 interaction, or if it represents, in contrast, a novel approach directed specifically at β-TrCP/NRF2 interaction. […] As an additional control, the HO-1 levels in MEFs originating from NRF2 knock-out (Nrf2^−/−) and wild-type (Nrf2^+/+) mice from the same litter were analyzed by immunoblot. […]

A further assay concerns Raw264.7 cells. The experiment in a line: Inflammatory response in LPS-stimulated Raw264.7 cells. It counts as cell-based, mouse. To be noted: Raw264.7, PHAR 10 μM 8 h pretreatment. Here is the method: FIG. 7. […] Serum-deprived Raw264.7 cells were pretreated with 10 μM of PHAR for 8 h. 0.1% DMSO was used as a vehicle. After that period of time, the cells were treated with 100 ng/ml of LPS for the indicated times. A), representative immunoblots of NRF2, HO1, p65, pre-IL1β, COX2, NOS2, and GAPDH as a loading control. The black arrow tip marks the specific band of p65 and NOS2. B), densitometric analysis of HO1 and NRF2 protein levels of the representative immunoblots of (A), expressed as a ratio of protein/GAPDH levels. The data is depicted as means±SEM (n=3). Statistical analysis was performed with two-way ANOVA followed by the Bonferroni test to compare inter-group differences. ***p<0.001 vs LPS. C), Densitometric analysis of pre-IL1β, COX2, and NOS2 protein levels of the representative immunoblots of (A), expressed as a ratio of protein/GAPDH levels. The data is depicted as means±SEM (n=3). Statistical analysis was performed with two-way ANOVA followed by the Bonferroni test to compare inter-group differences. ***p<0.001 vs. LPS. D) and E), the mRNA levels of Il1β, Cox2, Nos2, Il6, and Tnfα were determined by means of qRT-PCR and normalized by means of average Gapdh, Tbp, and β-actin. The data is depicted as mean±SEM (n=3). Statistical analysis was performed with two-way ANOVA followed by the Bonferroni test to check inter-group differences. ***p<0.001 vs. LPS. […] The cells were then stimulated with LPS (100 ng/ml, 1, 2, or 4 h) to trigger an inflammatory response.

For the compound `O=C1[C@@H]2[C@H](Cc3c[nH]c4ccccc34)N[C@]3(C(=O)Nc4ccc(Cl)cc43)[C@@H]2C(=O)N1c1ccc2c(c1)OCCO2` [PHAR], in the assay on NRF2 (PHAR 10 μM, 2, 4, 8 h), the “HO-1 increase in MEFs from Nrf2−/− mice” value is “not observed” and the “HO-1 levels in MEFs from Nrf2+/+ mice” value was “significant increase in HO-1”. Moreover, in the assay with NRF2 (PHAR 10 μM, 8 h), the “mRNA levels of NRF2 targets in Nrf2+/+ and Nrf2−/− MEFs” value is given as “The same result was obtained”. For the same compound, in the assay with Raw264.7 cells (LPS 100 ng/ml), the “Il6 and Tnfa induction” value is given as “significantly milder induction”; the “NRF2 and HO-1 levels” value is “increased NRF2 and HO-1 levels”. In addition, in the assay with Raw264.7 cells (LPS 100 ng/ml 4 h), the “inflammatory parameters by immunoblot (pre-IL1β, COX2, NOS2) or mRNA (Il1β, Cox2, Nos2)” value is given as “mitigated the increase in inflammatory parameters”.

The values above are taken from US12590100B2, “Tetrahydro-spiroindoline-pyrrolopyrrole-triones inhibitors of the NRF2-β-TrCP interaction for use in the treatment of fatty liver disease” (Universidad Autonoma De Madrid, priority 2021, dated 2026).
